Laboratory results as given in patent publication US9409866B2, “Pyridine-2-amides useful as CB2 agonists” (Hoffmann-La Roche Inc., priority 2012, dated 2016).

Tests used:
human CB2 receptors = human CB2 receptors (Homo sapiens (Human), UniProt P34972); experiment: functional cAMP assay, CHO cells expressing human CB2; assay type: cell-based; details: read-out: Human CB2 EC50
How it was run: (§1)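 CHO cells expressing human CB1 or CB2 were preincubated 30 min at 30 °C in Krebs Ringer bicarbonate with 1 mM IBMX, then exposed to compound 30 min at 30 °C. cAMP quantified by TR-FRET competition (Alexa700 antibody/ruthenium-cAMP) against a 10 μM–0.13 nM standard curve; EC50 derived.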

human CB1 receptors = human CB1 receptors (Homo sapiens (Human), UniProt P21554); experiment: functional cAMP assay, CHO cells expressing human CB1; assay type: cell-based; details: functional cAMP assay, CHO cells expressing human CB1; read-out: Human CB1 EC50
How it was run: as §1

human CB1 receptors, sequence (P21554 whole entry): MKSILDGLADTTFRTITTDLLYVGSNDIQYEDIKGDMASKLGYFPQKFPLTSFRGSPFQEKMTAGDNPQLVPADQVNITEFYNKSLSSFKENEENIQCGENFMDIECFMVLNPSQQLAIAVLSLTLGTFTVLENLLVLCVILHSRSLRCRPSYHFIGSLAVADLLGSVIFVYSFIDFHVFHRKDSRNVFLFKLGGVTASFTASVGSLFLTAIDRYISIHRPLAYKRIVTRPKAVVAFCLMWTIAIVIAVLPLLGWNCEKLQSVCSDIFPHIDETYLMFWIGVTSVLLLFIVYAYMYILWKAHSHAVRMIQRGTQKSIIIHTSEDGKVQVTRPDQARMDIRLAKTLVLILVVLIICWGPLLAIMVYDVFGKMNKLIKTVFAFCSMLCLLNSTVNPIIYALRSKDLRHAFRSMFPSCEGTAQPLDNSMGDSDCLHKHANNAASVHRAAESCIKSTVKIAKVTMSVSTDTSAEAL
human CB2 receptors, sequence (P34972 whole entry): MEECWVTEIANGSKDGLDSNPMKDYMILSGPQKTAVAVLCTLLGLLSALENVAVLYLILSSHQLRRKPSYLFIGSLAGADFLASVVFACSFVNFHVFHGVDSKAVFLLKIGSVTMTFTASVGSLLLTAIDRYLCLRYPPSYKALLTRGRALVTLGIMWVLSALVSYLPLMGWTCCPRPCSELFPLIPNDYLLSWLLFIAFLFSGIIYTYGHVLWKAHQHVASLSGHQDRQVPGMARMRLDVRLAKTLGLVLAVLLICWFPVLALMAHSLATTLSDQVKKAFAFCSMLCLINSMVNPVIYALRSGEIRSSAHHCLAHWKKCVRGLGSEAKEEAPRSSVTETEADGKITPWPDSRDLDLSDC

| SMILES | EC50 (human CB2 receptors) | EC50 (human CB1 receptors) |
| --- | --- | --- |
| CNC(=O)CC1(NC(=O)c2cc(OCC(F)(F)F)c(N3CC(F)(F)C3)cn2)COC1 [Example 233, 5-(3,3-difluoroazetidin-1-yl)-N-[3-[2-(methylamino)-2-oxoethyl]oxetan-3-yl]-4-(2,2,2-trifluoroethoxy)pyridine-2-carboxamide] | 915 nM | > 10000 nM |
| CCC(CC)(NC(=O)c1cc(OCC2(C)COC2)c(C2CC2)cn1)C(=O)NCCCF [Example 234, 5-cyclopropyl-N-[3-(3-fluoropropylcarbamoyl)pentan-3-yl]-4-[(3-methyloxetan-3-yl)methoxy]pyridine-2-carboxamide] | 455 nM | > 10000 nM |
| CCC(CC)(NC(=O)c1cc(OCC2(C)COC2)c(C2CC2)cn1)C(=O)NCC(F)CCl (centres unmarked) [Example 235, N-[3-[[3-chloro-2-fluoropropyl]carbamoyl]pentan-3-yl]-5-cyclopropyl-4-[(3-methyloxetan-3-yl)methoxy]pyridine-2-carboxamide] | 293 nM | > 10000 nM |
| CNC(=O)C(NC(=O)c1cc(OCC(F)(F)F)c(C2CC2)cn1)C(C)(C)O (centres unmarked) [Example 236, 5-cyclopropyl-N-[3-hydroxy-3-methyl-1-(methylamino)-1-oxobutan-2-yl]-4-(2,2,2-trifluoroethoxy)pyridine-2-carboxamide] | 51.2 nM | > 10000 nM |
| CNC(=O)C(NC(=O)c1cc(OCC(F)(F)F)c(C2CC2)cn1)C(C)(C)F (centres unmarked) [Example 237, 5-cyclopropyl-N-[3-fluoro-3-methyl-1-(methylamino)-1-oxobutan-2-yl]-4-(2,2,2-trifluoroethoxy)pyridine-2-carboxamide] | 17 nM | > 10000 nM |
| CNC(=O)C(NC(=O)c1cc(O[C@@H](C)C(F)(F)F)c(C2CC2)cn1)C(C)(C)O (stereo partly drawn) [Example 238, 5-cyclopropyl-N-[3-hydroxy-3-methyl-1-(methylamino)-1-oxobutan-2-yl]-4-[(2S)-1,1,1-trifluoropropan-2-yl]oxypyridine-2-carboxamide] | 27.4 nM | > 10000 nM |
| C[C@H](Oc1cc(C(=O)NC(C(N)=O)C(C)(C)C)ncc1C1CC1)C(F)(F)F (stereo partly drawn) [Example 239, N-(1-amino-3,3-dimethyl-1-oxobutan-2-yl)-5-cyclopropyl-4-[(2S)-1,1,1-trifluoropropan-2-yl]oxypyridine-2-carboxamide] | 1.5 nM | > 10000 nM |
| C[C@H](Oc1cc(C(=O)NC(C(N)=O)C(C)(C)C)ncc1C1CC1)C(F)(F)F (stereo partly drawn) [Example 240, N-(1-amino-3,3-dimethyl-1-oxobutan-2-yl)-5-cyclopropyl-4-[(2S)-1,1,1-trifluoropropan-2-yl]oxypyridine-2-carboxamide] | 55.2 nM | > 10000 nM |
| Cc1nnc(C(NC(=O)c2cc(OCC(F)(F)F)c(C3CC3)cn2)C2(C)COC2)o1 (centres unmarked) [Example 245, 5-cyclopropyl-N-[(5-methyl-1,3,4-oxadiazol-2-yl)-(3-methyloxetan-3-yl)methyl]-4-(2,2,2-trifluoroethoxy)pyridine-2-carboxamide] | 997 nM | > 10000 nM |
| Cc1nnc(C(NC(=O)c2cc(O[C@@H](C)C(F)(F)F)c(C3CC3)cn2)C2(C)COC2)o1 (stereo partly drawn) [Example 246, 5-cyclopropyl-N-[(5-methyl-1,3,4-oxadiazol-2-yl)-(3-methyloxetan-3-yl)methyl]-4-[(2S)-1,1,1-trifluoropropan-2-yl]oxypyridine-2-carboxamide] | 186 nM | > 10000 nM |
| CNC(=O)CC(C)(NC(=O)c1cc(O[C@@H](C)C(F)(F)F)c(C2CC2)cn1)C1CC1 (stereo partly drawn) [Example 247, 5-cyclopropyl-N-[2-cyclopropyl-4-(methylamino)-4-oxobutan-2-yl]-4-[(2S)-1,1,1-trifluoropropan-2-yl]oxypyridine-2-carboxamide] | 19.3 nM | > 10000 nM |
| C[C@H](Oc1cc(C(=O)NC(C)(CC(N)=O)C2CC2)ncc1C1CC1)C(F)(F)F (stereo partly drawn) [Example 248, N-(4-amino-2-cyclopropyl-4-oxobutan-2-yl)-5-cyclopropyl-4-[(2S)-1,1,1-trifluoropropan-2-yl]oxypyridine-2-carboxamide] | 0.9 nM | > 10000 nM |
| CNC(=O)CC(C)(NC(=O)c1cc(O[C@@H](C)C(F)(F)F)c(C2CC2)cn1)C1CC1 (stereo partly drawn) [Example 249, 5-cyclopropyl-N-[2-cyclopropyl-4-(methylamino)-4-oxobutan-2-yl]-4-[(2S)-1,1,1-trifluoropropan-2-yl]oxypyridine-2-carboxamide] | 1 nM | > 10000 nM |
| CNC(=O)CC(C)(NC(=O)c1cc(O[C@@H](C)C(F)(F)F)c(C2CC2)cn1)C1CC1 (stereo partly drawn) [Example 250, 5-cyclopropyl-N-[2-cyclopropyl-4-(methylamino)-4-oxobutan-2-yl]-4-[(2S)-1,1,1-trifluoropropan-2-yl]oxypyridine-2-carboxamide] | 33.2 nM | > 10000 nM |
| C[C@H](Oc1cc(C(=O)NC(C(N)=O)C2(C)COC2)ncc1C1CC1)C(F)(F)F (stereo partly drawn) [Example 251, N-[2-amino-1-(3-methyloxetan-3-yl)-2-oxoethyl]-5-cyclopropyl-4-[(2S)-1,1,1-trifluoropropan-2-yl]oxypyridine-2-carboxamide] | 8.9 nM | > 10000 nM |
| CNC(=O)C(NC(=O)c1cc(O[C@@H](C)C(F)(F)F)c(C2CC2)cn1)C(C)(C)O (stereo partly drawn) [Example 252, 5-cyclopropyl-N-[3-hydroxy-3-methyl-1-(methylamino)-1-oxobutan-2-yl]-4-[(2S)-1,1,1-trifluoropropan-2-yl]oxypyridine-2-carboxamide] | 344 nM | > 10000 nM |
| CNC(=O)C(NC(=O)c1cc(O[C@@H](C)C(F)(F)F)c(C2CC2)cn1)C(C)(C)O (stereo partly drawn) [Example 253, 5-cyclopropyl-N-[3-hydroxy-3-methyl-1-(methylamino)-1-oxobutan-2-yl]-4-[(2S)-1,1,1-trifluoropropan-2-yl]oxypyridine-2-carboxamide] | 1.9 nM | > 10000 nM |
| Cc1nc(C(NC(=O)c2cc(O[C@@H](C)C(F)(F)F)c(C3CC3)cn2)C2(C)COC2)no1 (stereo partly drawn) [Example 254, 5-cyclopropyl-N-[(5-methyl-1,2,4-oxadiazol-3-yl)-(3-methyloxetan-3-yl)methyl]-4-[(2S)-1,1,1-trifluoropropan-2-yl]oxypyridine-2-carboxamide] | 6.5 nM | > 10000 nM |
| Cc1nc(C(NC(=O)c2cc(O[C@@H](C)C(F)(F)F)c(C3CC3)cn2)C2(C)COC2)no1 (stereo partly drawn) [Example 255, 5-cyclopropyl-N-[(5-methyl-1,2,4-oxadiazol-3-yl)-(3-methyloxetan-3-yl)methyl]-4-[(2S)-1,1,1-trifluoropropan-2-yl]oxypyridine-2-carboxamide] | 6.7 nM | > 10000 nM |
| CC(C)(C)C(NC(=O)c1cc(OCC(F)(F)F)c(N2CC(F)(F)C2)cn1)C(N)=O (centres unmarked) [Example 256, N-(1-amino-3,3-dimethyl-1-oxobutan-2-yl)-5-(3,3-difluoroazetidin-1-yl)-4-(2,2,2-trifluoroethoxy)pyridine-2-carboxamide] | 13.2 nM | > 10000 nM |
| CC(C)(C)C(NC(=O)c1cc(OCC2CC2)c(N2CC(F)(F)C2)cn1)C(N)=O (centres unmarked) [Example 257, N-(1-amino-3,3-dimethyl-1-oxobutan-2-yl)-4-(cyclopropylmethoxy)-5-(3,3-difluoroazetidin-1-yl)pyridine-2-carboxamide] | 3 nM | > 10000 nM |
| C[C@H](Oc1cc(C(=O)NC(C)(CC(N)=O)C2CC2)ncc1C1CC1)C(F)(F)F (stereo partly drawn) [Example 258, N-(4-amino-2-cyclopropyl-4-oxobutan-2-yl)-5-cyclopropyl-4-[(2S)-1,1,1-trifluoropropan-2-yl]oxypyridine-2-carboxamide] | 13 nM | > 10000 nM |
| C[C@H](Oc1cc(C(=O)NC(C)(CC(N)=O)C2CC2)ncc1C1CC1)C(F)(F)F (stereo partly drawn) [Example 259, N-(4-amino-2-cyclopropyl-4-oxobutan-2-yl)-5-cyclopropyl-4-[(2S)-1,1,1-trifluoropropan-2-yl]oxypyridine-2-carboxamide] | 0.5 nM | > 10000 nM |
| NC(=O)CC1(NC(=O)c2cc(OCC(F)(F)F)c(N3CC(F)(F)C3)cn2)CS(=O)(=O)C1 [Example 264, N-[3-(2-amino-2-oxoethyl)-1,1-dioxothietan-3-yl]-5-(3,3-difluoroazetidin-1-yl)-4-(2,2,2-trifluoroethoxy)pyridine-2-carboxamide] | 178 nM | > 10000 nM |
| C[C@H](Oc1cc(C(=O)NC2(CC(N)=O)CS(=O)(=O)C2)ncc1C1(F)COC1)C(F)(F)F [Example 265, N-[3-(2-amino-2-oxoethyl)-1,1-dioxothietan-3-yl]-5-(3-fluorooxetan-3-yl)-4-[(2S)-1,1,1-trifluoropropan-2-yl]oxypyridine-2-carboxamide] | 102 nM | > 10000 nM |
| C[C@H](Oc1cc(C(=O)NC2(CC(N)=O)CS(=O)(=O)C2)ncc1C1CC1)C(F)(F)F [Example 266, N-[3-(2-amino-2-oxoethyl)-1,1-dioxothietan-3-yl]-5-cyclopropyl-4-[(2S)-1,1,1-trifluoropropan-2-yl]oxypyridine-2-carboxamide] | 1.6 nM | > 10000 nM |
| NC(=O)CC1(NC(=O)c2cc(OCC3CC3)c(N3CC(F)(F)C3)cn2)CS(=O)(=O)C1 [Example 267, N-[3-(2-amino-2-oxoethyl)-1,1-dioxothietan-3-yl]-4-(cyclopropylmethoxy)-5-(3,3-difluoroazetidin-1-yl)pyridine-2-carboxamide] | 10.5 nM | > 10000 nM |
| NC(=O)CC1(NC(=O)c2cc(OCC(F)F)c(C3CC3)cn2)CS(=O)(=O)C1 [Example 274, N-[3-(2-amino-2-oxoethyl)-1,1-dioxothietan-3-yl]-5-cyclopropyl-4-(2,2-difluoroethoxy)pyridine-2-carboxamide] | 10.1 nM | > 10000 nM |
